Results reported in PubChem BioAssay AID328 (DTP/NCI, 2004).
Several values for one entry are separate records, joined by “and”; a condition that tells them apart may be missing. Identical values can stand only once. Inconclusive results and toxic doses are left out. Non-standard residues stand in square brackets, D forms with d. Residues, ends and D or L forms follow the SMILES beside them. ξ: configuration not given here. *: point of attachment. Boc = CC(C)(C)OC(=O)*; ξM = CSCCC(N)C(=O)O

Tested on: BDF1 mice, P388 leukemia ip, median survival T/C
Test: NCI In Vivo Anticancer Drug Screen. Data for tumor model P388 Leukemia (intraperitoneal) in B6D2F1 (BDF1) mice
Details: endpoint: median survival time, higher = longer survival
Method in brief: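 Transplantable tumour in mice; compound vs vehicle dosing; survival scored; ratio of treated to control reported.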

[1] = dose: 50.0 mg/kg/injection, schedule: Q01DX009 (ip), vehicle: saline with Tween-80
[2] = dose: 50.0 mg/kg/injection, schedule: Q04DX003 (ip), vehicle: saline with Tween-80
[3] = dose: 100.0 mg/kg/injection, schedule: Q01DX009 (ip), vehicle: saline with Tween-80
[4] = dose: 200.0 mg/kg/injection, schedule: Q01DX009 (ip), vehicle: saline with Tween-80
[5] = dose: 25.0 mg/kg/injection, schedule: Q01DX009 (ip), vehicle: saline with Tween-80
[6] = dose: 25.0 mg/kg/injection, schedule: Q04DX003 (ip), vehicle: saline with Tween-80

COc1ccc(C2CCc3cc(OC)c(OC)cc3C2=O)cc1OC (configuration not stated)
T/C (dose: 20.0 mg/kg/injection, schedule: Q01DX009 (ip), vehicle: saline with Tween-80): 87 % of control | T/C (dose: 80.0 mg/kg/injection, schedule: Q01DX009 (ip), vehicle: saline with Tween-80): 91 % of control | T/C (dose: 120.0 mg/kg/injection, schedule: Q01DX009 (ip), vehicle: saline with Tween-80): 87 % of control

CN1CCC2=C(C1)C(N1CCCCC1)CS(=O)(=O)O2 (configuration not stated)
T/C (dose: 25.0 mg/kg/injection, schedule: Q04DX002 (ip), vehicle: saline): 93 % of control | T/C (dose: 50.0 mg/kg/injection, schedule: Q04DX002 (ip), vehicle: saline): 97 % of control | T/C (dose: 100.0 mg/kg/injection, schedule: Q04DX002 (ip), vehicle: saline with Tween-80): 93 % of control

COc1cc(/C=N\NC(=O)CC#N)cc(OC)c1OC
T/C [1]: 90 % of control | T/C [2]: 95 % of control | T/C [3]: 104 % of control | T/C (dose: 100.0 mg/kg/injection, schedule: Q04DX003 (ip), vehicle: saline with Tween-80): 95 % of control | T/C [4]: 100 % of control | T/C (dose: 200.0 mg/kg/injection, schedule: Q04DX003 (ip), vehicle: saline with Tween-80): 95 % of control

CCOC(=O)C(Cc1ccc(N(CCCl)CCCl)cc1)NC(=O)C(NC(C)=O)C(C)C (configuration not stated)
T/C (dose: 5.0 mg/kg/injection, schedule: Q04DX003 (ip), vehicle: water): 109 % of control | T/C (dose: 10.0 mg/kg/injection, schedule: Q04DX003 (ip), vehicle: water): 157 % of control | T/C (dose: 20.0 mg/kg/injection, schedule: Q04DX003 (ip), vehicle: water): 223 % of control | T/C (dose: 40.0 mg/kg/injection, schedule: Q04DX003 (ip), vehicle: water): 264 % of control | T/C (dose: 80.0 mg/kg/injection, schedule: Q04DX003 (ip), vehicle: water): 150 % of control

c1ccc(N/N=C(/C[n+]2cc3ccccc3c3ccccc32)c2ccccc2)cc1
T/C (dose: 25.0 mg/kg/injection, schedule: Q01DX009 (ip), vehicle: Klucel (hydroxypropylcellulose) (HPC)): 114 % of control | T/C (dose: 33.0 mg/kg/injection, schedule: Q01DX009 (ip), vehicle: Klucel (hydroxypropylcellulose) (HPC)): 113 % of control | T/C (dose: 35.0 mg/kg/injection, schedule: Q01DX009 (ip), vehicle: Klucel (hydroxypropylcellulose) (HPC)): 95 % of control | T/C (dose: 50.0 mg/kg/injection, schedule: Q01DX009 (ip), vehicle: Klucel (hydroxypropylcellulose) (HPC)): 100 % of control | T/C (dose: 75.0 mg/kg/injection, schedule: Q01DX009 (ip), vehicle: Klucel (hydroxypropylcellulose) (HPC)): 112 % of control and 122 % of control | T/C (dose: 100.0 mg/kg/injection, schedule: Q01DX009 (ip), vehicle: Klucel (hydroxypropylcellulose) (HPC)): 114 % of control

Cc1ccc(CN(CC(=O)O)S(C)(=O)=O)cc1
T/C (dose: 100.0 mg/kg/injection, schedule: Q04DX003 (ip), vehicle: other): 106 % of control | T/C (dose: 200.0 mg/kg/injection, schedule: Q04DX003 (ip), vehicle: other): 109 % of control | T/C (dose: 400.0 mg/kg/injection, schedule: Q04DX003 (ip), vehicle: other): 94 % of control

CSCCC(NC(=O)CNC(=O)OC(C)(C)C)C(=O)NCC(=O)O (stereo not drawn) (Boc-Gly-[ξM]-Gly-OH)
T/C (dose: 50.0 mg/kg/injection, schedule: Q01DX005 (ip), vehicle: saline with Tween-80): 98 % of control | T/C (dose: 100.0 mg/kg/injection, schedule: Q01DX005 (ip), vehicle: saline with Tween-80): 95 % of control | T/C (dose: 200.0 mg/kg/injection, schedule: Q01DX005 (ip), vehicle: saline with Tween-80): 95 % of control

COc1cc2c(cc1OC)-c1c(C)c3ccc(OC)c(NCCN)c3c[n+]1CC2
T/C (dose: 3.12 mg/kg/injection, schedule: Q01DX005 (ip), vehicle: water): 100 % of control | T/C (dose: 3.13 mg/kg/injection, schedule: Q04DX003 (ip), vehicle: water): 101 % of control | T/C (dose: 6.25 mg/kg/injection, schedule: Q01DX005 (ip), vehicle: water): 97 % of control | T/C (dose: 6.25 mg/kg/injection, schedule: Q04DX003 (ip), vehicle: water): 108 % of control | T/C (dose: 12.5 mg/kg/injection, schedule: Q01DX005 (ip), vehicle: water): 100 % of control | T/C (dose: 12.5 mg/kg/injection, schedule: Q04DX003 (ip), vehicle: water): 110 % of control | T/C (dose: 25.0 mg/kg/injection, schedule: Q01DX005 (ip), vehicle: water): 98 % of control | T/C (dose: 25.0 mg/kg/injection, schedule: Q04DX003 (ip), vehicle: water): 98 % of control and 120 % of control

O/N=C1/CCCc2ccccc21
T/C [3]: 86 % of control | T/C [4]: 86 % of control | T/C (dose: 400.0 mg/kg/injection, schedule: Q01DX009 (ip), vehicle: saline with Tween-80): 86 % of control

CCCCN1C/C(=C\c2ccc(Br)cc2)C(=O)/C(=C/c2ccc(Br)cc2)C1
T/C (dose: 6.25 mg/kg/injection, schedule: Q01DX005 (ip), vehicle: saline with Tween-80): 91 % of control | T/C (dose: 12.5 mg/kg/injection, schedule: Q01DX005 (ip), vehicle: saline with Tween-80): 95 % of control

CC(=O)NC(=O)NC(C)=O
T/C (dose: 100.0 mg/kg/injection, schedule: Q01DX001 (ip), vehicle: saline): 91 % of control | T/C (dose: 200.0 mg/kg/injection, schedule: Q01DX001 (ip), vehicle: saline): 91 % of control | T/C (dose: 400.0 mg/kg/injection, schedule: Q01DX001 (ip), vehicle: saline): 91 % of control

Nc1ccc2ccccc2c1N=Nc1ccc(C(O)C(N)CO)cc1 (configuration not stated)
T/C (dose: 6.25 mg/kg/injection, schedule: Q01DX009 (ip), vehicle: saline sonified): 100 % of control | T/C (dose: 12.5 mg/kg/injection, schedule: Q01DX009 (ip), vehicle: saline sonified): 112 % of control | T/C (dose: 25.0 mg/kg/injection, schedule: Q01DX009 (ip), vehicle: saline sonified): 100 % of control

COc1ccc2c(c1)NC(c1ccccc1C(=O)O)c1cccn1-2 (configuration not stated)
T/C (dose: 6.25 mg/kg/injection, schedule: Q01DX009 (ip), vehicle: saline with Tween-80): 90 % of control | T/C (dose: 12.5 mg/kg/injection, schedule: Q01DX009 (ip), vehicle: saline with Tween-80): 97 % of control | T/C [5]: 97 % of control

CC1(C)N=C(N)N=C(N)N1c1ccc(OCCCNC(=O)Nc2cccc(S(=O)(=O)F)c2)c(Cl)c1
T/C [5]: 177 % of control | T/C [6]: 150 % of control | T/C [1]: 200 % of control | T/C [2]: 150 % of control | T/C (dose: 66.0 mg/kg/injection, schedule: Q01DX009 (ip), vehicle: saline with Tween-80): 177 % of control | T/C [3]: 86 % of control and 213 % of control

COc1cc(C=Nc2cccc(F)c2)ccc1N(CCCl)CCCl
T/C (dose: 1.25 mg/kg/injection, schedule: Q01DX009 (ip), vehicle: other): 180 % of control | T/C (dose: 2.5 mg/kg/injection, schedule: Q01DX009 (ip), vehicle: other): 195 % of control | T/C (dose: 3.13 mg/kg/injection, schedule: Q01DX009 (ip), vehicle: other): 168 % of control | T/C (dose: 5.0 mg/kg/injection, schedule: Q01DX009 (ip), vehicle: other): 280 % of control | T/C (dose: 6.25 mg/kg/injection, schedule: Q01DX009 (ip), vehicle: other): 181 % of control | T/C (dose: 12.5 mg/kg/injection, schedule: Q01DX009 (ip), vehicle: other): 95 % of control | T/C (dose: 25.0 mg/kg/injection, schedule: Q04DX003 (ip), vehicle: saline sonified): 95 % of control | T/C (dose: 50.0 mg/kg/injection, schedule: Q04DX003 (ip), vehicle: saline sonified): 100 % of control | T/C (dose: 100.0 mg/kg/injection, schedule: Q04DX003 (ip), vehicle: saline sonified): 195 % of control

c1cc2c(c(CC3CO3)c1CC1CO1)OCCOCCOCCOCCO2 (configuration not stated)
T/C (dose: 6.0 mg/kg/injection, schedule: Q01DX009 (ip), vehicle: saline + alcohol): 98 % of control and 105 % of control | T/C (dose: 12.0 mg/kg/injection, schedule: Q01DX009 (ip), vehicle: saline + alcohol): 108 % of control | T/C (dose: 24.0 mg/kg/injection, schedule: Q01DX009 (ip), vehicle: saline + alcohol): 113 % of control

Cc1cc(=O)n(Cc2ccccc2)c(O)c1C
T/C (dose: 100.0 mg/kg/injection, schedule: Q04DX003 (ip), vehicle: Klucel (hydroxypropylcellulose) (HPC)): 102 % of control | T/C (dose: 200.0 mg/kg/injection, schedule: Q04DX003 (ip), vehicle: Klucel (hydroxypropylcellulose) (HPC)): 94 % of control

CCOCN(COCC)c1cccc(Cl)c1
T/C [1]: 100 % of control and 115 % of control | T/C [3]: 118 % of control | T/C [4]: 118 % of control

COC(=O)C1(Cc2ccccc2)CCCC1(C#N)O[Si](C)(C)C (configuration not stated)
T/C (dose: 12.5 mg/kg/injection, schedule: Q04DX003 (ip), vehicle: saline with Tween-80): 92 % of control | T/C [6]: 106 % of control | T/C [2]: 97 % of control
